What was measured:
Bacteroides fragilis = assay: Expected efficacy of anti-bacterial agents against various bacteria (Tables 5 and 6); conditions: Gram: anaer
Clostridium difficile = assay: as above; conditions: Gram: anaer
Clostridium perfringens = conditions: expected efficacy; Clostridium perfringens; Gram: anaer
Chlamydia pneumoniae = assay: Expected efficacy of anti-bacterial agents against various bacteria (Tables 5 and 6); conditions: Gram: n/a
Chlamydia psittaci = conditions: expected efficacy; Chlamydia psittaci; Gram: n/a
Chlamydia trachomatis = assay: Expected efficacy of anti-bacterial agents against various bacteria (Tables 5 and 6); conditions: Gram: n/a
Mycoplasma pneumoniae = assay: as above; conditions: Gram: n/a
Acinetobacter baumannii = assay: as above; conditions: Gram: neg
[1] = tested on: Acinetobacter calcoaceticus; assay: as above; conditions: Gram: neg
Acinetobacter lwoffii = assay: as above; conditions: Gram: neg
Bartonella bacilliformis = assay: as above; conditions: Gram: neg
Bordetella pertussis = assay: as above; conditions: Gram: neg
Brucella species = conditions: expected efficacy; Brucella species; Gram: neg
Campylobacter jejuni = assay: Expected efficacy of anti-bacterial agents against various bacteria (Tables 5 and 6); conditions: Gram: neg
Citrobacter diversus = assay: as above; conditions: Gram: neg
Citrobacter freundii = assay: as above; conditions: Gram: neg
Enterobacter aerogenes = assay: as above; conditions: Gram: neg
Enterobacter cloacae = assay: as above; conditions: Gram: neg
Enterobacter sakazakii = assay: as above; conditions: Gram: neg
Escherichia coli = assay: as above; conditions: Gram: neg
Francisella tularensis = conditions: expected efficacy; Francisella tularensis; Gram: neg
Haemophilus influenzae = assay: Expected efficacy of anti-bacterial agents against various bacteria (Tables 5 and 6); conditions: Gram: neg
[2] = tested on: Klebsiella (Calymmatobacterium) granulomatis; assay: as above; conditions: Gram: neg
Klebsiella oxytoca = assay: as above; conditions: Gram: neg
Klebsiella pneumoniae = assay: as above; conditions: Gram: neg
Legionella pneumophila = conditions: expected efficacy; Legionella pneumophila; Gram: neg
Moraxella catarrhalis = assay: Expected efficacy of anti-bacterial agents against various bacteria (Tables 5 and 6); conditions: Gram: neg
Morganella morganii = assay: as above; conditions: Gram: neg
Neisseria meningitidis = assay: as above; conditions: Gram: neg
Proteus mirabilis = assay: as above; conditions: Gram: neg
Proteus vulgaris = assay: as above; conditions: Gram: neg
Providencia rettgeri = assay: as above; conditions: Gram: neg
Providencia stuartii = assay: as above; conditions: Gram: neg
Pseudomonas aeruginosa = assay: as above; conditions: Gram: neg
Pseudomonas fluorescens = assay: as above; conditions: Gram: neg
Rickettsiae = conditions: expected efficacy; Rickettsiae; Gram: neg
Serratia marcescens = assay: Expected efficacy of anti-bacterial agents against various bacteria (Tables 5 and 6); conditions: Gram: neg
Vibrio cholerae = assay: as above; conditions: Gram: neg
Corynebacterium jeikeium = assay: as above; conditions: Gram: pos
Enterococcus faecalis = assay: as above; conditions: Gram: pos
Enterococcus faecium = assay: as above; conditions: Gram: pos
[3] = tested on: Methicillin resistant staph aureus (MRSA); assay: as above; conditions: Gram: pos
[4] = tested on: Staphylococcus aureus (MSSA); assay: as above; conditions: Gram: pos
[5] = tested on: Staphylococcus epidermidis; assay: as above; conditions: Gram: pos
Streptococcus agalactiae = assay: as above; conditions: Gram: pos
Streptococcus pneumoniae = assay: as above; conditions: Gram: pos
Streptococcus pyogenes = assay: as above; conditions: Gram: pos
[6] = tested on: Haemophilus parainfluenzae; assay: as above; conditions: Gram: neg
Neisseria gonorrhoeae = assay: as above; conditions: Gram: neg
Salmonella typhi = assay: as above; conditions: Gram: neg
Shigella boydii = assay: as above; conditions: Gram: neg
Shigella dysenteriae = assay: as above; conditions: Gram: neg
Shigella flexneri = assay: as above; conditions: Gram: neg
Shigella sonnei = assay: as above; conditions: Gram: neg
Yersinia pestis = conditions: expected efficacy; Yersinia pestis; Gram: neg
Candida species = assay: Expected efficacy of anti-fungal agents against various fungi (Table 4)
Haemophilus ducreyi = assay: Expected efficacy of anti-bacterial agents against various bacteria (Tables 5 and 6); conditions: Gram: neg
[7] = tested on: Corynebacterium urealyticum; assay: as above; conditions: Gram: pos
Diphtheroids = assay: as above; conditions: Gram: pos
Peptostreptococcus = assay: as above; conditions: Gram: pos
[8] = tested on: Viridans group streptococci; assay: as above; conditions: Gram: pos

CC[C@H]1OC(=O)[C@H](C)[C@@H](O[C@H]2C[C@@](C)(OC)[C@@H](O)[C@H](C)O2)[C@H](C)[C@@H](O[C@@H]2O[C@H](C)C[C@H](N(C)C)[C@H]2O)[C@](C)(O)C[C@@H](C)CN(C)[C@H](C)[C@@H](O)[C@]1(C)O [Azithromycin]
yes: Efficacy of various antibiotic agents (Chlamydia pneumoniae) | Efficacy of various antibiotic agents (Chlamydia psittaci) | Efficacy of various antibiotic agents (Chlamydia trachomatis) | Efficacy of various antibiotic agents (Mycoplasma pneumoniae) | Efficacy of various antibiotic agents (Bartonella bacilliformis) | Efficacy of various antibiotic agents (Bordetella pertussis) | Efficacy of various antibiotic agents (Campylobacter jejuni) | Efficacy of various antibiotic agents (Haemophilus influenzae) | Efficacy of various antibiotic agents (Legionella pneumophila) | Efficacy of various antibiotic agents (Moraxella catarrhalis) | Efficacy of various antibiotic agents (Neisseria meningitidis) | Efficacy of various antibiotic agents (Rickettsiae) | Efficacy of various antibiotic agents (Vibrio cholerae) | Efficacy of various antibiotic agents [4] | Efficacy of various antibiotic agents [5] | Efficacy of various antibiotic agents (Streptococcus agalactiae) | Efficacy of various antibiotic agents (Streptococcus pneumoniae) | Efficacy of various antibiotic agents (Streptococcus pyogenes)
no: Efficacy of various antibiotic agents (Bacteroides fragilis) | Efficacy of various antibiotic agents (Clostridium difficile) | Efficacy of various antibiotic agents (Clostridium perfringens) | Efficacy of various antibiotic agents (Acinetobacter baumannii) | Efficacy of various antibiotic agents [1] | Efficacy of various antibiotic agents (Acinetobacter lwoffii) | Efficacy of various antibiotic agents (Brucella species) | Efficacy of various antibiotic agents (Citrobacter diversus) | Efficacy of various antibiotic agents (Citrobacter freundii) | Efficacy of various antibiotic agents (Enterobacter aerogenes) | Efficacy of various antibiotic agents (Enterobacter cloacae) | Efficacy of various antibiotic agents (Enterobacter sakazakii) | Efficacy of various antibiotic agents (Escherichia coli) | Efficacy of various antibiotic agents (Francisella tularensis) | Efficacy of various antibiotic agents [2] | Efficacy of various antibiotic agents (Klebsiella oxytoca) | Efficacy of various antibiotic agents (Klebsiella pneumoniae) | Efficacy of various antibiotic agents (Morganella morganii) | Efficacy of various antibiotic agents (Proteus mirabilis) | Efficacy of various antibiotic agents (Proteus vulgaris) | Efficacy of various antibiotic agents (Providencia rettgeri) | Efficacy of various antibiotic agents (Providencia stuartii) | Efficacy of various antibiotic agents (Pseudomonas aeruginosa) | Efficacy of various antibiotic agents (Pseudomonas fluorescens) | Efficacy of various antibiotic agents (Serratia marcescens) | Efficacy of various antibiotic agents (Corynebacterium jeikeium) | Efficacy of various antibiotic agents (Enterococcus faecalis) | Efficacy of various antibiotic agents (Enterococcus faecium) | Efficacy of various antibiotic agents [3]

O=C(O)c1cn(C2CC2)c2cc(N3CCNCC3)c(F)cc2c1=O [Ciprofloxacin]
yes: Efficacy of various antibiotic agents (Chlamydia pneumoniae) | Efficacy of various antibiotic agents (Bartonella bacilliformis) | Efficacy of various antibiotic agents (Campylobacter jejuni) | Efficacy of various antibiotic agents (Citrobacter diversus) | Efficacy of various antibiotic agents (Citrobacter freundii) | Efficacy of various antibiotic agents (Enterobacter aerogenes) | Efficacy of various antibiotic agents (Escherichia coli) | Efficacy of various antibiotic agents (Francisella tularensis) | Efficacy of various antibiotic agents (Haemophilus influenzae) | Efficacy of various antibiotic agents [6] | Efficacy of various antibiotic agents (Klebsiella oxytoca) | Efficacy of various antibiotic agents (Klebsiella pneumoniae) | Efficacy of various antibiotic agents (Legionella pneumophila) | Efficacy of various antibiotic agents (Moraxella catarrhalis) | Efficacy of various antibiotic agents (Morganella morganii) | Efficacy of various antibiotic agents (Neisseria gonorrhoeae) | Efficacy of various antibiotic agents (Neisseria meningitidis) | Efficacy of various antibiotic agents (Proteus mirabilis) | Efficacy of various antibiotic agents (Proteus vulgaris) | Efficacy of various antibiotic agents (Providencia rettgeri) | Efficacy of various antibiotic agents (Providencia stuartii) | Efficacy of various antibiotic agents (Pseudomonas aeruginosa) | Efficacy of various antibiotic agents (Pseudomonas fluorescens) | Efficacy of various antibiotic agents (Rickettsiae) | Efficacy of various antibiotic agents (Salmonella typhi) | Efficacy of various antibiotic agents (Serratia marcescens) | Efficacy of various antibiotic agents (Shigella boydii) | Efficacy of various antibiotic agents (Shigella dysenteriae) | Efficacy of various antibiotic agents (Shigella flexneri) | Efficacy of various antibiotic agents (Shigella sonnei) | Efficacy of various antibiotic agents (Vibrio cholerae) | Efficacy of various antibiotic agents (Yersinia pestis) | Efficacy of various antibiotic agents [5]
no: Efficacy of various antibiotic agents (Bacteroides fragilis) | Efficacy of various antibiotic agents (Corynebacterium jeikeium) | Efficacy of various antibiotic agents (Enterococcus faecium) | Efficacy of various antibiotic agents [3]

C[C@@H]1[C@H](O)[C@@H](C)/C=C/C=C/CC/C=C/C=C/C=C/C=C/C(O[C@H]2O[C@H](C)[C@@H](O)[C@H](N)[C@@H]2O)CC2O[C@](O)(CC(O)C(O)CCC(O)CC(O)CC(O)CC(=O)O[C@H]1C)CC(O)C2C(=O)O (stereo partly shown) [Nystatin]
yes: Efficacy of various antifungal agents (Candida species)

NC[C@H]1O[C@H](O[C@H]2[C@H](O)[C@@H](O[C@H]3O[C@H](CO)[C@@H](O)[C@H](N)[C@H]3O)[C@H](N)C[C@@H]2N)[C@H](N)C[C@@H]1O [Tobramycin]
no: Efficacy of various antibiotic agents (Bacteroides fragilis) | Efficacy of various antibiotic agents (Clostridium difficile) | Efficacy of various antibiotic agents (Clostridium perfringens) | Efficacy of various antibiotic agents (Chlamydia pneumoniae) | Efficacy of various antibiotic agents (Chlamydia psittaci) | Efficacy of various antibiotic agents (Chlamydia trachomatis) | Efficacy of various antibiotic agents (Mycoplasma pneumoniae) | Efficacy of various antibiotic agents (Acinetobacter baumannii) | Efficacy of various antibiotic agents [1] | Efficacy of various antibiotic agents (Acinetobacter lwoffii) | Efficacy of various antibiotic agents (Bordetella pertussis) | Efficacy of various antibiotic agents (Legionella pneumophila) | Efficacy of various antibiotic agents (Neisseria gonorrhoeae) | Efficacy of various antibiotic agents (Neisseria meningitidis) | Efficacy of various antibiotic agents (Vibrio cholerae) | Efficacy of various antibiotic agents (Corynebacterium jeikeium) | Efficacy of various antibiotic agents [7] | Efficacy of various antibiotic agents (Diphtheroids) | Efficacy of various antibiotic agents (Enterococcus faecalis) | Efficacy of various antibiotic agents (Enterococcus faecium) | Efficacy of various antibiotic agents [3] | Efficacy of various antibiotic agents (Peptostreptococcus) | Efficacy of various antibiotic agents [4] | Efficacy of various antibiotic agents [5] | Efficacy of various antibiotic agents (Streptococcus agalactiae) | Efficacy of various antibiotic agents (Streptococcus pneumoniae) | Efficacy of various antibiotic agents (Streptococcus pyogenes) | Efficacy of various antibiotic agents [8]
yes: Efficacy of various antibiotic agents (Campylobacter jejuni) | Efficacy of various antibiotic agents (Citrobacter diversus) | Efficacy of various antibiotic agents (Citrobacter freundii) | Efficacy of various antibiotic agents (Enterobacter aerogenes) | Efficacy of various antibiotic agents (Enterobacter cloacae) | Efficacy of various antibiotic agents (Enterobacter sakazakii) | Efficacy of various antibiotic agents (Escherichia coli) | Efficacy of various antibiotic agents (Haemophilus ducreyi) | Efficacy of various antibiotic agents (Haemophilus influenzae) | Efficacy of various antibiotic agents [2] | Efficacy of various antibiotic agents (Klebsiella oxytoca) | Efficacy of various antibiotic agents (Klebsiella pneumoniae) | Efficacy of various antibiotic agents (Moraxella catarrhalis) | Efficacy of various antibiotic agents (Proteus mirabilis) | Efficacy of various antibiotic agents (Proteus vulgaris) | Efficacy of various antibiotic agents (Pseudomonas aeruginosa) | Efficacy of various antibiotic agents (Pseudomonas fluorescens) | Efficacy of various antibiotic agents (Serratia marcescens) | Efficacy of various antibiotic agents (Shigella boydii) | Efficacy of various antibiotic agents (Shigella dysenteriae) | Efficacy of various antibiotic agents (Shigella flexneri) | Efficacy of various antibiotic agents (Shigella sonnei) | Efficacy of various antibiotic agents (Yersinia pestis)
